Our source for the inhibition values is paper PMC9821324, “Pinostrobin Suppresses the α-Melanocyte-Stimulating Hormone-Induced Melanogenic Signaling Pathway” (International Journal of Molecular Sciences, 2023).

For the experiment, the target named is T1, mushroom tyrosinase (Agaricus bisporus, UniProt C7FF04).
T1 construct: gene PPO3
Put plainly: cell-free mushroom tyrosinase assay with L-tyrosine, absorbance at […] nm, single concentration […]. Type of experiment: biochemical. To be noted: read-out: % inhibition at 250 nM.

T1 sequence (C7FF04 2-392): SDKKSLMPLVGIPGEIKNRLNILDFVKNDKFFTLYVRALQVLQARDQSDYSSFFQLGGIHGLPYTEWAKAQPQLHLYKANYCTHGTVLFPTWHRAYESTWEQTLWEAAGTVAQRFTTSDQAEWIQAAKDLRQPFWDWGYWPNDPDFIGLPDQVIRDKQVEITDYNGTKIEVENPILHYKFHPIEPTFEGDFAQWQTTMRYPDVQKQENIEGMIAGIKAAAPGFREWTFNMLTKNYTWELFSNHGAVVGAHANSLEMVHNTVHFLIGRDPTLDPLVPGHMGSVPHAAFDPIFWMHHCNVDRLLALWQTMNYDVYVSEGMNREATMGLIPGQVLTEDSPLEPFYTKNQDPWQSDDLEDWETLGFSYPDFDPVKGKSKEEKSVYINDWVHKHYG

Consider `NC(=S)Nc1ccccc1` [PTU, phenylthiourea], for which the inhibition (as a rule, the percentage by which the read-out fell short of the control) at 0.25 µM was 74.7%.
